{"source": "patent US12383545B1", "about": "“Treatment of migraine” (priority 2018, dated 2025)", "key": {"[1]": {"system": "participants with episodic migraine", "assay": "Study B: AIM-D PDA and PI domain scores over 52 weeks", "type": "in vivo, human", "settings": "atogepant 60 mg, mITT Population", "description": "The Activity in Migraine Diary (AIM-D) evaluates the impact of migraine on the performance of daily activities and physical impairment using an electronic daily diary. In particular, the AIM-D is comprised of two domains that evaluate Performance of Daily Activities (PDA) and Physical Impairment (PI). Assessed items for the AIM-D PDA domain include household chores, errands, leisure activities at home, social or leisure activities outside the home, strenuous physical activities, concentration, and thinking clearly. Assessed items for the AIM-D PI Domain include walking, moving one's body, bending forward, and moving one's head. Response options for each item range from “not difficult at all” to “I could not do it at all” on a 6-point rating scale. The AIM-D domain scores are scaled from 0-100, with higher scores indicating greater impact of migraine, and reductions from baseline in scores indicate improvement. See Cala et al., The Activity Impairment in Migraine-Diary (AIM-D): A Novel Migraine-Specific Patient-Reported Outcome Measure to Assess Functioning Based on Activity Impairment in Episodic and Chronic Migraine Patients, MTIS2018-005 (Sep. 5, 2018).\nThe negative change scores with confidence intervals that exclude 0 indicate a significant reduction in impairment due to migraine in PDA and PI.\nChange scores with confidence intervals excluding zero were present at each time point assessed, indicating significant reduction in impairment due to migraine during the 52-week trial."}, "[2]": {"system": "ALT or AST", "assay": "Example 5: postbaseline hepatic laboratory parameter values of clinical interest", "type": "in vivo, human", "settings": "safety population", "description": "In a multicenter, randomized, double-blind, placebo-controlled, parallel-group study designed to evaluate the efficacy, safety, and tolerability of multiple doses and doses regimens of atogepant for the prevention of migraine. The patients were randomized (2:1:2:1:2:1) to 1 of 6 treatment groups: placebo, atogepant 10 mg QD, atogepant 30 mg QD, atogepant 30 mg BID, atogepant 60 mg QD, and atogepant 60 mg BID.\nA total of 834 patients were randomized to double-blind treatment (ITT population), and 825 patients took at least 1 dose of double-blind IP (safety population). […] The primary efficacy variable was the change from baseline in mean monthly migraine/probable migraine headache days across the 12-week treatment period. The secondary efficacy variables were the change from baseline in mean monthly headache days across the 12-week treatment period, proportion of patients with at least a 50% reduction in mean monthly migraine/probable migraine headache days across the 12-week treatment period, and the change from baseline in mean monthly acute medication use days across the 12-week treatment period."}, "[3]": {"settings": "Atogepant 10 mg QD (N = 93), same day"}}, "data": [{"smiles": "C[C@@H]1[C@H](c2c(F)ccc(F)c2F)C[C@H](NC(=O)c2cnc3c(c2)C[C@@]2(C3)C(=O)Nc3ncccc32)C(=O)N1CC(F)(F)F", "note": "[atogepant]", "values": [{"measurement": "Change from Baseline in AIM-D Monthly PDA Domain Score, LS Mean Δ from baseline", "setting": "[1]; Weeks 1-4, MMRM", "value": "−7.61"}, {"measurement": "Change from Baseline in AIM-D Monthly PI Domain Score, LS Mean Δ from baseline", "setting": "[1]; Weeks 1-4, MMRM", "value": "−5.56"}, {"measurement": "Change from Baseline in AIM-D Monthly PDA Domain Score, LS Mean Δ from baseline", "setting": "[1]; Weeks 5-8", "value": "−8.16"}, {"measurement": "Change from Baseline in AIM-D Monthly PI Domain Score, LS Mean Δ from baseline", "setting": "[1]; Weeks 5-8", "value": "−5.82"}, {"measurement": "Change from Baseline in AIM-D Monthly PDA Domain Score, LS Mean Δ from baseline", "setting": "[1]; Weeks 9-12", "value": "−8.53"}, {"measurement": "Change from Baseline in AIM-D Monthly PI Domain Score, LS Mean Δ from baseline", "setting": "[1]; Weeks 9-12", "value": "−6.13"}, {"measurement": "Change from Baseline in AIM-D Monthly PDA Domain Score, LS Mean Δ from baseline", "setting": "[1]; Weeks 13-16", "value": "−8.66"}, {"measurement": "Change from Baseline in AIM-D Monthly PI Domain Score, LS Mean Δ from baseline", "setting": "[1]; Weeks 13-16", "value": "−6.22"}, {"measurement": "Change from Baseline in AIM-D Monthly PDA Domain Score, LS Mean Δ from baseline", "setting": "[1]; Weeks 17-20", "value": "−9.02"}, {"measurement": "Change from Baseline in AIM-D Monthly PI Domain Score, LS Mean Δ from baseline", "setting": "[1]; Weeks 17-20", "value": "−6.38"}, {"measurement": "Change from Baseline in AIM-D Monthly PDA Domain Score, LS Mean Δ from baseline", "setting": "[1]; Weeks 21-24", "value": "−9.11"}, {"measurement": "Change from Baseline in AIM-D Monthly PI Domain Score, LS Mean Δ from baseline", "setting": "[1]; Weeks 21-24", "value": "−6.43"}, {"measurement": "Change from Baseline in AIM-D Monthly PDA Domain Score, LS Mean Δ from baseline", "setting": "[1]; Weeks 25-28", "value": "−9.16"}, {"measurement": "Change from Baseline in AIM-D Monthly PI Domain Score, LS Mean Δ from baseline", "setting": "[1]; Weeks 25-28", "value": "−6.40"}, {"measurement": "Change from Baseline in AIM-D Monthly PDA Domain Score, LS Mean Δ from baseline", "setting": "[1]; Weeks 29-32", "value": "−9.22"}, {"measurement": "Change from Baseline in AIM-D Monthly PI Domain Score, LS Mean Δ from baseline", "setting": "[1]; Weeks 29-32", "value": "−6.51"}, {"measurement": "Change from Baseline in AIM-D Monthly PDA Domain Score, LS Mean Δ from baseline", "setting": "[1]; Weeks 33-36", "value": "−9.61"}, {"measurement": "Change from Baseline in AIM-D Monthly PI Domain Score, LS Mean Δ from baseline", "setting": "[1]; Weeks 33-36", "value": "−6.94"}, {"measurement": "Change from Baseline in AIM-D Monthly PDA Domain Score, LS Mean Δ from baseline", "setting": "[1]; Weeks 37-40", "value": "−9.61"}, {"measurement": "Change from Baseline in AIM-D Monthly PI Domain Score, LS Mean Δ from baseline", "setting": "[1]; Weeks 37-40", "value": "−6.93"}, {"measurement": "Change from Baseline in AIM-D Monthly PDA Domain Score, LS Mean Δ from baseline", "setting": "[1]; Weeks 41-44", "value": "−9.77"}, {"measurement": "Change from Baseline in AIM-D Monthly PI Domain Score, LS Mean Δ from baseline", "setting": "[1]; Weeks 41-44", "value": "−7.01"}, {"measurement": "Change from Baseline in AIM-D Monthly PDA Domain Score, LS Mean Δ from baseline", "setting": "[1]; Weeks 45-48", "value": "−9.79"}, {"measurement": "Change from Baseline in AIM-D Monthly PI Domain Score, LS Mean Δ from baseline", "setting": "[1]; Weeks 45-48", "value": "−7.02"}, {"measurement": "Change from Baseline in AIM-D Monthly PDA Domain Score, LS Mean Δ from baseline", "setting": "[1]; Weeks 49-52, MMRM", "value": "−10.17"}, {"measurement": "Change from Baseline in AIM-D Monthly PI Domain Score, LS Mean Δ from baseline", "setting": "[1]; Weeks 49-52, MMRM", "value": "−7.20"}, {"measurement": "Participants with postbaseline ALT or AST (U/L) >=1 * ULN, (%)", "setting": "[2]; Atogepant 10 mg QD (N = 93)", "value": "(18.5) %"}, {"measurement": "Participants with postbaseline ALT or AST (U/L) >=1 * ULN, n/N1", "setting": "[2]; Atogepant 10 mg QD (N = 93)", "value": "17/92"}, {"measurement": "Participants with postbaseline ALT or AST (U/L) >=1.5 * ULN, (%)", "setting": "[2]; Atogepant 10 mg QD (N = 93)", "value": "(4.3) %"}, {"measurement": "Participants with postbaseline ALT or AST (U/L) >=1.5 * ULN, n/N1", "setting": "[2]; Atogepant 10 mg QD (N = 93)", "value": "4/92"}, {"measurement": "Participants with postbaseline ALT or AST (U/L) >=2 * ULN, (%)", "setting": "[2]; Atogepant 10 mg QD (N = 93)", "value": "(4.3) %"}, {"measurement": "Participants with postbaseline ALT or AST (U/L) >=2 * ULN, n/N1", "setting": "[2]; Atogepant 10 mg QD (N = 93)", "value": "4/92"}, {"measurement": "Participants with postbaseline ALT or AST (U/L) >=3 * ULN, (%)", "setting": "[2]; Atogepant 10 mg QD (N = 93)", "value": "(2.2) %"}, {"measurement": "Participants with postbaseline ALT or AST (U/L) >=3 * ULN, n/N1", "setting": "[2]; Atogepant 10 mg QD (N = 93)", "value": "2/92"}, {"measurement": "Participants with postbaseline ALT or AST (U/L) >=5 * ULN, n/N1", "setting": "[2]; Atogepant 10 mg QD (N = 93)", "value": 0}, {"measurement": "Participants with postbaseline ALT or AST (U/L) >=10 * ULN, n/N1", "setting": "[2]; Atogepant 10 mg QD (N = 93)", "value": 0}, {"measurement": "Participants with postbaseline ALT or AST (U/L) >=20 * ULN, n/N1", "setting": "[2]; Atogepant 10 mg QD (N = 93)", "value": 0}, {"measurement": "Participants with Concurrent Elevations ALT or AST >=3 * ULN AND Bilirubin Total >=1.5 * ULN, n/N1", "setting": "[2]; [3]", "value": 0}, {"measurement": "Participants with Concurrent Elevations ALT or AST >=3 * ULN AND Bilirubin Total >=2 * ULN, n/N1", "setting": "[2]; [3]", "value": 0}, {"measurement": "Participants with Potential Hy's Law ALT or AST >=3 * ULN AND Bilirubin Total >=2 * ULN AND ALP <2 * ULN, n/N1", "setting": "[2]; [3]", "value": 0}, {"measurement": "Participants with postbaseline ALT or AST (U/L) >=1 * ULN, (%)", "setting": "[2]; Atogepant 30 mg BID (N = 86)", "value": "(13.1) %"}, {"measurement": "Participants with postbaseline ALT or AST (U/L) >=1 * ULN, n/N1", "setting": "[2]; Atogepant 30 mg BID (N = 86)", "value": "11/84"}, {"measurement": "Participants with postbaseline ALT or AST (U/L) >=1.5 * ULN, (%)", "setting": "[2]; Atogepant 30 mg BID (N = 86)", "value": "(2.4) %"}, {"measurement": "Participants with postbaseline ALT or AST (U/L) >=1.5 * ULN, n/N1", "setting": "[2]; Atogepant 30 mg BID (N = 86)", "value": "2/84"}, {"measurement": "Participants with postbaseline ALT or AST (U/L) >=2 * ULN, (%)", "setting": "[2]; Atogepant 30 mg BID (N = 86)", "value": "(2.4) %"}, {"measurement": "Participants with postbaseline ALT or AST (U/L) >=2 * ULN, n/N1", "setting": "[2]; Atogepant 30 mg BID (N = 86)", "value": "2/84"}, {"measurement": "Participants with postbaseline ALT or AST (U/L) >=3 * ULN, (%)", "setting": "[2]; Atogepant 30 mg BID (N = 86)", "value": "(1.2) %"}, {"measurement": "Participants with postbaseline ALT or AST (U/L) >=3 * ULN, n/N1", "setting": "[2]; Atogepant 30 mg BID (N = 86)", "value": "1/84"}]}]}
